Blank lines part the entries; values can stand above or below the molecule they belong to. Activity calls are given as the source filed them. The calls are words filed in the database; no cut-off is given here.
Legend:
[1] = biological target: T1, Protein cereblon/N(6)-adenosine-methyltransferase catalytic subunit METTL3 (Homo sapiens) (UniProt Q96SW2+Q86U44); test: PROTAC activity at CRBN/METTL3 in human MOLM-13 cells assessed as induction of METTL3 degradation at 1 uM by Western blot analysis relative to control; type: cell-based
[2] = biological target: T1, Protein cereblon/N(6)-adenosine-methyltransferase catalytic subunit METTL3 (Homo sapiens); test: PROTAC activity at CRBN/METTL3 in human MOLM-13 cells assessed as induction of METTL3 degradation at 10 uM by Western blot analysis relative to control; type: cell-based
[3] = biological target: T2, von Hippel-Lindau disease tumor suppressor/N(6)-adenosine-methyltransferase catalytic subunit METTL3 (Homo sapiens, UniProt P40337+Q86U44); test: PROTAC activity at VHL/METTL3 in human MOLM-13 cells assessed as induction of METTL3 degradation at 1 uM by Western blot analysis relative to control; type: cell-based
Target sequence in this assay (Q86U44 2-580 partner limits assumed): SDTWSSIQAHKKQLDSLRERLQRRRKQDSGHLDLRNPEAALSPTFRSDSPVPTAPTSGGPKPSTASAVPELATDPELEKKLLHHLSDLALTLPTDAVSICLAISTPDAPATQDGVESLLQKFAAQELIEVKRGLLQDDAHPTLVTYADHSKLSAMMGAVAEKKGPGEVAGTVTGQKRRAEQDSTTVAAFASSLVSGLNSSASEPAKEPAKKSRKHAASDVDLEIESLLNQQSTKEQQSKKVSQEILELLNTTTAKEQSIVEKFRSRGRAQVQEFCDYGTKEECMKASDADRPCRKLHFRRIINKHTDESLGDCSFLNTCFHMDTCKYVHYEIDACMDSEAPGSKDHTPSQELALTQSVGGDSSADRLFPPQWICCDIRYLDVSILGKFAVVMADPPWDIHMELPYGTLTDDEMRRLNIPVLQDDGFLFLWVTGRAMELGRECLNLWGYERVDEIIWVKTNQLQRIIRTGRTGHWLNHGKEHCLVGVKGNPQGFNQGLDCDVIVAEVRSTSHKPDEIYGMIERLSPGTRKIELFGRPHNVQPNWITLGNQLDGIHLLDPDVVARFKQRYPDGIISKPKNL
Target sequence in this assay (P40337 whole entry): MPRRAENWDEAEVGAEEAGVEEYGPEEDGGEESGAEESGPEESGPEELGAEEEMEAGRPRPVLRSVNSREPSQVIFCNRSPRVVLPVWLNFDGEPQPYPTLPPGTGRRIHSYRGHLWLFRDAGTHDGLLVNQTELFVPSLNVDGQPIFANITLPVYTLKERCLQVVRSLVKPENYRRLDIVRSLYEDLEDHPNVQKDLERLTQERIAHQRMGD

[4] = biological target: T2, von Hippel-Lindau disease tumor suppressor/N(6)-adenosine-methyltransferase catalytic subunit METTL3; test: PROTAC activity at VHL/METTL3 in human MOLM-13 cells assessed as induction of METTL3 degradation at 10 uM by Western blot analysis relative to control; type: cell-based
Target sequence in this assay (Q86U44 2-580 partner limits assumed): as the sequence (Q86U44 2-580 partner limits assumed) above
Target sequence in this assay (P40337 whole entry): as the sequence (P40337 whole entry) above

AGS = test: Anticancer activity against human AGS cells assessed as inhibition of cell growth incubated for 72 hrs by cell viability assay; type: functional, cell-based
GES1 [5] = test: Anticancer activity against human GES1 cells assessed as inhibition of cell growth incubated for 72 hrs by cell viability assay; type: functional, cell-based
MOLM-13 [6] = test: Antiproliferative activity against human MOLM-13 cells assessed as inhibition of cell proliferation measured after 72 hrs by Celltiter Glo luminescent cell viability assay; type: functional, cell-based; settings: MOLM-13, 72 h
SNU-484 = test: (§1) Anticancer activity against human SNU484 cells assessed as inhibition of cell growth incubated for 72 hrs by cell viability assay; type: functional, cell-based
[7] = biological target: T2, von Hippel-Lindau disease tumor suppressor/N(6)-adenosine-methyltransferase catalytic subunit METTL3; test: PROTAC activity at VHL/METTL3 in HEK293T cells assessed as induction of METTL3 degradation at 1 uM preincubated with 3MA autophagy inhibitor for 2.5 hrs followed by compound addition and measured after 6 hrs by Western blot analysis; type: cell-based
Target sequence in this assay (Q86U44 2-580 partner limits assumed): as the sequence (Q86U44 2-580 partner limits assumed) above
Target sequence in this assay (P40337 whole entry): as the sequence (P40337 whole entry) above

Gastric cancer organoid [8] = test: Anti-proliferative activity against patient derived GA352T organoids assessed as suppression of tumor growth incubated for 5 days by Celltiter-glo viability assay; type: functional, tissue-based; settings: Homo sapiens; Neoplasm; time 5.0 day
MOLM-13 [9] = test: Downregulation of C-Myc protein level expression in human MOLM-13 cells incubated for 24 hrs by Western blot analysis; type: functional, cell-based
[10] = biological target: T2, von Hippel-Lindau disease tumor suppressor/N(6)-adenosine-methyltransferase catalytic subunit METTL3; test: PROTAC activity at VHL/METTL3 in human MOLM-13 cells assessed as induction of METTL3 degradation at 1 uM by Western blot analysis; type: cell-based; settings: time 4-24 hrs, TDE = time-dependent effect
Target sequence in this assay (Q86U44 2-580 partner limits assumed): as the sequence (Q86U44 2-580 partner limits assumed) above
Target sequence in this assay (P40337 whole entry): as the sequence (P40337 whole entry) above

MOLM-13 [11] = test: Induction of apoptosis in human MOLM-13 cells at 5 uM incubated for 48 hrs by Annexin V/PI staining based flow cytometry analysis; type: functional, cell-based
[12] = biological target: T2, von Hippel-Lindau disease tumor suppressor/N(6)-adenosine-methyltransferase catalytic subunit METTL3; test: (§2) Binding affinity to N-Luc tagged METTL3 (unknown origin)/Halo-tagged VHL (unknown origin) expressed in HEK293T cells assessed as ternary complex formation by measuring decrease in BRET ratio at 30 uM preincubated with epoxomicin for 2 hrs followed by compound addition and measured after 4.5 hrs by NanoBRET assay; type: cell-based
Target sequence in this assay (Q86U44 2-580 partner limits assumed): as the sequence (Q86U44 2-580 partner limits assumed) above
Target sequence in this assay (P40337 whole entry): as the sequence (P40337 whole entry) above

[13] = biological target: T2, von Hippel-Lindau disease tumor suppressor/N(6)-adenosine-methyltransferase catalytic subunit METTL3; test: PROTAC activity at VHL/METTL3 in human MOLM-13 cells assessed as induction of METTL3 degradation incubated for 24 hrs by Western blot analysis; type: cell-based
[14] = biological target: T2, von Hippel-Lindau disease tumor suppressor/N(6)-adenosine-methyltransferase catalytic subunit METTL3; test: PROTAC activity at VHL/METTL3 in HEK293T cells assessed as induction of METTL3 degradation at 1 uM preincubated with MG132 for 2.5 hrs followed by compound addition and measured after 6 hrs by Western blot analysis; type: cell-based
Target sequence in this assay (Q86U44 2-580 partner limits assumed): as the sequence (Q86U44 2-580 partner limits assumed) above
Target sequence in this assay (P40337 whole entry): as the sequence (P40337 whole entry) above

[15] = biological target: T2, von Hippel-Lindau disease tumor suppressor/N(6)-adenosine-methyltransferase catalytic subunit METTL3; test: as §2, with “increase” for “decrease”, “1” for “30”; type: cell-based
Gastric cancer organoid [16] = test: Anti-proliferative activity against patient derived GA215T organoids assessed as suppression of tumor growth incubated for 5 days by Celltiter-glo viability assay; type: functional, tissue-based; settings: Homo sapiens; Neoplasm; time 5.0 day
[17] = biological target: N6-adenosine-methyltransferase catalytic subunit (Homo sapiens) (UniProt Q86U44); test: Induction of thermal stabilization of endogenous METTL3 in human MOLM-13 cells incubated for 1 hrs by cellular thermal shift assay; type: cell-based
[18] = biological target: T2, von Hippel-Lindau disease tumor suppressor/N(6)-adenosine-methyltransferase catalytic subunit METTL3; test: PROTAC activity at VHL/METTL3 expressed in human SNU-484 cells assessed as reduction of METTL3 protein level in nucleus fraction at 1 uM incubated for 24 hrs by Western blot analysis; type: cell-based
HeLa = test: Binding affinity to METTL3/GFP-fused BRD4 (unknown origin) expressed in HeLa cells presence of MZ1 by Western blot analysis; type: cell-based; settings: Homo sapiens
[19] = biological target: T2, von Hippel-Lindau disease tumor suppressor/N(6)-adenosine-methyltransferase catalytic subunit METTL3; test: PROTAC activity at VHL/METTL3 in human MOLM-13 cells assessed as induction of METTL3 degradation at 1 uM incubated for 4 hrs by Western blot analysis relative to control; type: cell-based
[20] = biological target: T2, von Hippel-Lindau disease tumor suppressor/N(6)-adenosine-methyltransferase catalytic subunit METTL3; test: PROTAC activity at VHL/METTL3 in HEK293T cells assessed as induction of METTL3 degradation at 1 uM preincubated with MLN4924 for 2.5 hrs followed by compound addition and measured after 6 hrs by Western blot analysis; type: cell-based
METTL3/METTL14 = METTL3/METTL14 (Homo sapiens, UniProt Q86U44); test: Inhibition of METTL3/METTL14 (unknown origin) using Oligo ssRNA as substrate incubated for 20 min by Hotspot RNA methyltransferase assay; type: protein-complex assay
[21] = biological target: T2, von Hippel-Lindau disease tumor suppressor/N(6)-adenosine-methyltransferase catalytic subunit METTL3; test: PROTAC activity at VHL/METTL3 in human MOLM-13 cells assessed as induction of METTL3 degradation at 10 uM preincubated with UZH2 for 2 hrs followed by compound addition and measured after 24 hrs by Western blot analysis; type: cell-based
[22] = biological target: T2, von Hippel-Lindau disease tumor suppressor/N(6)-adenosine-methyltransferase catalytic subunit METTL3; test: Binding affinity to N-Luc tagged METTL3 (unknown origin)/Halo-tagged VHL (unknown origin) HA-Ub expressed in HEK293T cells assessed as ternary complex formation by measuring increase ubiquitination level at 1 uM preincubated with epoxomicin for 2.5 hrs followed by compound addition and measured after 6 hrs by NanoBRET assay; type: cell-based
[23] = biological target: T2, von Hippel-Lindau disease tumor suppressor/N(6)-adenosine-methyltransferase catalytic subunit METTL3; test: PROTAC activity at VHL/METTL3 expressed in human AGS cells assessed as reduction of cytoplasmic METTL3 protein level at 1 uM incubated for 24 hrs by Western blot analysis; type: cell-based
[24] = biological target: T2, von Hippel-Lindau disease tumor suppressor/N(6)-adenosine-methyltransferase catalytic subunit METTL3; test: PROTAC activity at VHL/METTL3 (unknown origin) expressed in HeLa cells incubated for 4 hrs presence of MZ1 by flow cytometry analysis; type: cell-based
[25] = biological target: T2, von Hippel-Lindau disease tumor suppressor/N(6)-adenosine-methyltransferase catalytic subunit METTL3; test: PROTAC activity at VHL/METTL3 (unknown origin) expressed in HeLa cells assessed as BRD4-eGFP_mCherry level incubated for 4 hrs in presence of MZ1 by flow cytometry analysis; type: cell-based
GES1 [26] = test: Cytotoxicity against human GES1 cells assessed as reduction in cell viability incubated for 24 hrs; type: toxicity, cell-based; settings: ges1, 24 h
[27] = biological target: T2, von Hippel-Lindau disease tumor suppressor/N(6)-adenosine-methyltransferase catalytic subunit METTL3; test: PROTAC activity at VHL/METTL3 in human MOLM-13 cells assessed as induction of METTL3 degradation at 1 uM incubated for 24 hrs by Western blot analysis relative to control; type: cell-based
MOLM-14 = test: Antiproliferative activity against human MOLM-14 cells assessed as cell growth inhibition after 72 hrs by Celltiter Glo luminescent cell viability assay; type: functional, cell-based
[28] = biological target: N6-adenosine-methyltransferase catalytic subunit (Homo sapiens) (UniProt Q86U44); test: Induction of thermal stabilization of METTL3 in human MOLM-13 cells at 52.4 to 54.8 degreeC incubated for 1 hrs by cellular thermal shift assay; type: cell-based
[29] = biological target: T2, von Hippel-Lindau disease tumor suppressor/N(6)-adenosine-methyltransferase catalytic subunit METTL3; test: PROTAC activity at VHL/METTL3 in HEK293T cells assessed as induction of METTL3 degradation at 1 uM preincubated with epoxomicin for 2.5 hrs followed by compound addition and measured after 6 hrs by Western blot analysis; type: cell-based
[30] = biological target: T2, von Hippel-Lindau disease tumor suppressor/N(6)-adenosine-methyltransferase catalytic subunit METTL3; test: PROTAC activity at VHL/METTL3 expressed in human AGS cells assessed as reduction of METTL3 protein level in nucleus fraction at 1 uM incubated for 24 hrs by Western blot analysis; type: cell-based
[31] = biological target: T2, von Hippel-Lindau disease tumor suppressor/N(6)-adenosine-methyltransferase catalytic subunit METTL3; test: PROTAC activity at VHL/METTL3 expressed in human SNU-484 cells assessed as reduction of cytoplasmic METTL3 protein level at 1 uM incubated for 24 hrs by Western blot analysis; type: cell-based
[32] = as §1; type: functional, cell-based; settings: SNU-484, 72 h
HL-60 = test: Antiproliferative activity against human HL-60 cells assessed as cell growth inhibition after 72 hrs by Celltiter Glo luminescent cell viability assay; type: functional, cell-based
[33] = biological target: T2, von Hippel-Lindau disease tumor suppressor/N(6)-adenosine-methyltransferase catalytic subunit METTL3; test: PROTAC activity at VHL/METTL3 in human MOLM-13 cells assessed as induction of METTL3 degradation incubated for 4 to 24 hrs by Western blot analysis relative to control; type: cell-based; settings: time 4-24 hrs
[34] = biological target: T2, von Hippel-Lindau disease tumor suppressor/N(6)-adenosine-methyltransferase catalytic subunit METTL3; test: PROTAC activity at VHL/METTL3 in human MOLM-13 cells assessed as induction of METTL3 degradation at 10 uM preincubated with VH032 for 2 hrs followed by compound addition and measured after 24 hrs by Western blot analysis; type: cell-based

T1 sequence (Q86U44 whole entry, looked up): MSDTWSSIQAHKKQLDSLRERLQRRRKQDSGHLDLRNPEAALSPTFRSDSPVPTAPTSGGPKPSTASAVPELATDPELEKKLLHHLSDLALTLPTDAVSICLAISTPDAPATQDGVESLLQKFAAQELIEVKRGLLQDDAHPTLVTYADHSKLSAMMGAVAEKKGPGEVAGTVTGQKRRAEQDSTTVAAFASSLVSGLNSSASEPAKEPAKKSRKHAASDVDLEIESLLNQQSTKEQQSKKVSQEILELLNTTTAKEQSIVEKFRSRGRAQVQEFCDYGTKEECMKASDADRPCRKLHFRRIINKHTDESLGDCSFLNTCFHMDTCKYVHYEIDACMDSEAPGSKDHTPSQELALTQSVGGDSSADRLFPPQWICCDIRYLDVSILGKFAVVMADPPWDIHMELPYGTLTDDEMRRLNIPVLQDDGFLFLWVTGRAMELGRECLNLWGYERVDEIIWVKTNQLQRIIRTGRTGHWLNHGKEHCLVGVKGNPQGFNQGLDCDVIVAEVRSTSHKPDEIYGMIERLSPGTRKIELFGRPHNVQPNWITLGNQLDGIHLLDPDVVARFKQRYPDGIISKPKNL
T1 sequence (Q96SW2 whole entry, looked up): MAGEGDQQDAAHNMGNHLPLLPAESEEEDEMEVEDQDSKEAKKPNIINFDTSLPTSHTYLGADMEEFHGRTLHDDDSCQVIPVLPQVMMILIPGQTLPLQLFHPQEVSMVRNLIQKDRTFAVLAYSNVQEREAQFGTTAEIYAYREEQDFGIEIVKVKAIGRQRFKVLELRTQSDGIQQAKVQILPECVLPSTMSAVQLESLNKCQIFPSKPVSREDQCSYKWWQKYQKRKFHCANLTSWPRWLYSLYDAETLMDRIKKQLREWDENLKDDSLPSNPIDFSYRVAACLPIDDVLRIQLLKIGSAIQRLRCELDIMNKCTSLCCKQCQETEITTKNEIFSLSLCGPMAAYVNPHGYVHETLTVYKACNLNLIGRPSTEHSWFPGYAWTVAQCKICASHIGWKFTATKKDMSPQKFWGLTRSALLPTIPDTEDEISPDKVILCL
Sequence of N6-adenosine-methyltransferase catalytic subunit (Homo sapiens) (Q86U44 whole entry): as the sequence (Q86U44 whole entry, looked up) above
Sequence of METTL3/METTL14 (Q86U44 whole entry): as the sequence (Q86U44 whole entry, looked up) above
Sequence of METTL3/METTL14 (Q9HCE5 whole entry, further chain): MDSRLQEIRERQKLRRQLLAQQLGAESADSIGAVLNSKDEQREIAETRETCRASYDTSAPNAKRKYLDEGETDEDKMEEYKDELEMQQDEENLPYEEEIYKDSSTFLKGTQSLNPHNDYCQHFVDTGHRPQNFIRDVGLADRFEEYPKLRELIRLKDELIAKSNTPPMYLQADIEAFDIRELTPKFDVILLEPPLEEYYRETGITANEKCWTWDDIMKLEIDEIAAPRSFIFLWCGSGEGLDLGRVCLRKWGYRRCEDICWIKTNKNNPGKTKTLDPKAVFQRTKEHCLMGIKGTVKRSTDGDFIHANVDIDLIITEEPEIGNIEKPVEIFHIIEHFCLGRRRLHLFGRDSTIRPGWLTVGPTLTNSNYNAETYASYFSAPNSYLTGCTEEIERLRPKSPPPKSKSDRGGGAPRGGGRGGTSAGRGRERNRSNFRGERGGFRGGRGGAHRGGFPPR

Activity [1]: 32%
Activity [2]: 35%
SMILES: CC1(C)CCN(Cc2cc(F)c(N3CC(=O)NC4(CCN(c5cc(NCCCCCC(=O)N6CCN(c7ccc8c(c7)C(=O)N(C7CCC(=O)NC7=O)C8=O)CC6)ncn5)CC4)C3)cc2F)CC1 (stereo unspecified)

Activity [3]: 34%
Activity [4]: 55%
SMILES: Cc1ncsc1-c1ccc(CNC(=O)[C@@H]2C[C@@H](O)CN2C(=O)[C@@H](NC(=O)CCCCCCCCCCNc2cc(N3CCC4(CC3)CN(c3cc(F)c(CN5CCC(C)(C)CC5)cc3F)CC(=O)N4)ncn2)C(C)(C)C)cc1

IC50 (MOLM-13 [6]): 5470 nM
SMILES: O=C(NCc1cn2cc(CNCC3CCCCC3)ccc2n1)c1cc(=O)n2ccccc2n1
Activity (AGS): inactive
Activity (GES1 [5]): inactive
Activity (SNU-484): inactive

Activity [7]: Active
Activity [10]: Tde
Activity [12]: inactive
Activity [13]: Dose-Dependent Effect
DC50 [13]: 220 nM
Activity [14]: inactive
Activity [15]: Active
Activity [17]: Dose-Dependent Effect
Activity [18]: Active
IC50 (AGS): 1480 nM
Activity [19]: > 50%
Activity [20]: inactive
IC50 (METTL3/METTL14): 341 nM
IC50 (MOLM-13 [6]): 1040 nM
Activity [3]: 84%
Activity [21]: inactive
Activity [22]: Active
Activity [23]: Active
Activity [24]: Active
Activity [25]: inactive
Activity [27]: 90%
Activity [28]: Active
Activity [29]: inactive
Activity [30]: Active
Activity [31]: Active
Activity [4]: 50%
Activity [33]: Dose-Dependent Effect
Activity [34]: Active
SMILES: Cc1ncsc1-c1ccc(CNC(=O)[C@@H]2C[C@@H](O)CN2C(=O)[C@@H](NC(=O)CCCCCCCNc2cc(N3CCC4(CC3)CN(c3cc(F)c(CN5CCC(C)(C)CC5)cc3F)CC(=O)N4)ncn2)C(C)(C)C)cc1
Activity (Gastric cancer organoid [8]): Active
Activity (MOLM-13 [9]): Dose-Dependent Effect
Activity (MOLM-13 [11]): Active
Activity (Gastric cancer organoid [16]): Active
Activity (HeLa): Active
IC50 (GES1 [5]; GES1, 72 h): > 50000 nM
Activity (GES1 [26]): Toxic
Activity (MOLM-14): Active
IC50 [32]: 3000 nM
Activity (HL-60): Active

Reference: ChEMBL document CHEMBL6127062, “Targeted degradation of METTL3 against acute myeloid leukemia and gastric cancer” (Eur J Med Chem, 2024)
